What was measured:
3T3-L1 Adipocytes = assay: Free fatty acid levels in cultured mouse 3T3-L1 adipocytes, isoproterenol stimulated (Example 2); type: cell-based; details: isoproterenol 1 nM; for Free Fatty Acid Levels in 3T3-L1 Adipocytes Expressed as a Percent of Isoproterenol Control: Percent of Control Value: test peptides 25 μM
Method in brief: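 3T3-L1 cells differentiated 12–17 days into adipocytes, then exposed to test peptides at 25 μM final for 18–20 h, then 1 h, then 3 h with isoproterenol (1 nM) at 37 °C. Free fatty acids in the medium measured colorimetrically at 540 nm, corrected for untreated background and expressed relative to isoproterenol-only cells.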

Human Primary Adipocytes = assay: Free fatty acid levels in cultured human primary adipocytes, forskolin stimulated (Example 5); type: cell-based; details: forskolin 1 μM; for Free Fatty Acid Levels in Human Primary Adipocytes Expressed as a Percent of Forskolin Control: Percent of Control Value: test peptides 25 μM
Method in brief: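 Differentiated human primary adipocytes (14–24 days) were exposed to peptides at 25 μM for 18–20 h and 1 h, then stimulated with 1 μM forskolin plus peptide for 3 h at 37 °C. Medium free fatty acids were measured colorimetrically (540 nm), background-corrected and expressed relative to forskolin-only cells.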

[1] = test system: Diet Induced Obese (DIO) mice; assay: Body weight, blood glucose and fat mass in Diet Induced Obese mice, 10 days (Example 6); type: in vivo, Male C57BL/6 mice; details: male DIO mice; 10 days twice daily intraperitoneal 15 mg/kg; N = 8; mean
Method in brief: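 Male DIO mice (n=8/group), randomized by blood glucose and body weight, dosed 15 mg/kg/dose once or twice daily s.c. or i.p. for 10 days vs vehicle. Body weight, blood glucose and food intake monitored; fat vs lean mass by quantitative whole-body NMR before and after dosing.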

[2] = Stability in mouse plasma, peptides 100 uM (Example 14); type: in vitro ADME; details: mouse plasma 37° C., peptide 100 uM; for remaining at 0.25 h, 100 uM / remaining at 0.5 h, 100 uM / remaining at 1 h, 100 uM / remaining at 2 h, 100 uM / remaining at 3 h, 100 uM: pooled mouse plasma; for remaining at 0.25 h, 100 uM: 15 min, read-out: % Remaining at Each Time Point: 15 min; for remaining at 0.5 h, 100 uM: 30 min, read-out: % Remaining at Each Time Point: 30 min; for remaining at 1 h, 100 uM: 60 min, read-out: % Remaining at Each Time Point: 60 min; for remaining at 2 h, 100 uM: 120 min, read-out: % Remaining at Each Time Point: 120 min; for remaining at 3 h, 100 uM: 180 min, read-out: % Remaining at Each Time Point: 180 min
Experimental: Peptides (100 uM) were incubated in pooled mouse plasma at 37° C. and samples were removed and immediately analyzed for the concentration of intact peptide by LC/MS/MS over the course of 3 hours. The percent of peptide remaining in plasma at each time point was calculated relative to the initial peak area (Table 12).

Row | Substance | Free Fatty Acid Levels in 3T3-L1 Adipocytes Expressed as a Percent of Isoproterenol Control: Percent of Control Value (3T3-L1 Adipocytes) | Free Fatty Acid Levels in Human Primary Adipocytes Expressed as a Percent of Forskolin Control: Percent of Control Value (Human Primary Adipocytes) | Difference from Vehicle Control: Decrease from Baseline in Blood Glucose [1] | Difference from Vehicle Control: Decrease from Baseline in Body Weight (%) [1] | Difference from Vehicle Control: Decrease from Baseline in Fat Mass [1] | % Remaining at Each Time Point: 0 min [2] | remaining at 0.25 h, 100 uM [2] | remaining at 0.5 h, 100 uM [2] | remaining at 1 h, 100 uM [2] | remaining at 2 h, 100 uM [2] | remaining at 3 h, 100 uM [2] | Free fatty acid levels, % of the isoproterenol control value (3T3-L1 Adipocytes; insulin 100 nM, 3T3-L1 adipocytes) | Free fatty acid levels, % of the forskolin control value (Human Primary Adipocytes; insulin 100 nM, human primary adipocytes)
1 | H-RWQEMQYIFYPR-OH [compound 211] | 29.9% | 90.1% | -2.25 mg/dL | −1.04% | -0.43 g | – | – | – | – | – | – | – | –
2 | H-MRWQEMNYIFYPR-OH [compound 208] | 57.9% | 90.2% | -11.5 mg/dL | −5.05% | -1.87 g | 100% | 63.3% | 53.1% | 48.9% | 45.3% | 47.7% | – | –
3 | H-MRWQEMGYIFYPRKLA-OH [compound 21] | 45.1% | 113% | -4.21 mg/dL | −3.00% | -2.03 g | 100% | 29.9% | 31% | 21.5% | 6.41% | 2.13% | – | –
4 | H-MRWQEMQYIFYPRALR-OH [compound 219] | 38.9% | 84.0% | -17.3 mg/dL | −4.09% | -1.37 g | 100% | 44.5% | 40.9% | 41.3% | 19.8% | 12.2% | – | –
5 | Insulin [reference compound] | – | – | – | – | – | – | – | – | – | – | – | < 5% | < 8%
6 | H-MRWQEMGYIFYPRKLR-OH [compound 2] | 63.3% | 111% | -4.88 mg/dL | −0.58% | -0.24 g | 100% | 32% | 14.8% | 7.58% | 4.78% | 1.21% | – | –
7 | H-RWQEMNYIFYPR-OH [compound 210] | 44.6% | 95.2% | 8.25 mg/dL | −3.70% | -1.45 g | 100% | 56.2% | 44.8% | 39.6% | 34.4% | 41.4% | – | –
8 | H-MRWQEMGYIFYPRNLR-OH [compound 213] | 48.1% | 90.8% | -20.1 mg/dL | −4.21% | -1.16 g | 100% | 41% | 29.4% | 20.5% | 10% | 7.45% | – | –

Reference: US11753445B2, “Therapeutic peptides” (COHBAR, INC., priority 2016, dated 2023)
